# Values quoted from earlier work in patent publication US20120088773A1, “Circadian rhythm modulation” (priority 2010, published 2012).
# Experiments:
# [1] = test system: dopamine D(2) receptor; details: 200 mg oral caffeine compared to oral placebo
# [2] = test system: D2 dopamine-mediated rotational behavior; details: prior administration, dopamine-depleted rats
# [3] = according to the CDC
structure (smiles),measurement,setting,value
Cn1c(=O)c2c(ncn2C)n(C)c1=O [caffeine],ventral striatal [(11)C]raclopride binding potential,[1],trend-level increase
same,decrease in midline thalamic binding potential,[1]; p<0.001,12%
same,D2 dopamine-mediated rotational behavior,[2],can sensitize D2 dopamine-mediated rotational behavior
CC(=O)N[C@@H](Cc1ccc(O)cc1)C(=O)O [N-acetyl-L-tyrosine],water solubility,,very water soluble
"C=C1CC[C@H](O)C/C1=C/C=C1\CCC[C@]2(C)[C@@H]([C@H](C)CCCC(C)C)CC[C@@H]12 [vitamin D3, cholecalciferol]",half-life,[3],24 to 48 h
